The term Ki denotes the dissociation constant of the complex between target and ligand, obtained from inhibition or displacement. A high value points to lower affinity.

The target of this assay is T1, PelA (Pseudomonas aeruginosa, UniProt Q9HZE4).
T1 construct: PelAΔ46Chis6, residues 47 to 948, C-terminal His6
The experiment in a line: fluorogenic AMMU esterase assay with purified PelA, Michaelis-Menten global noncompetitive fit (IC50 […]); reversible by gel filtration. It is filed as biochemical. On the technique in general: SEC sorts molecules by how far they enter the pores of the column.

T1 sequence (Q9HZE4 entry or part of it): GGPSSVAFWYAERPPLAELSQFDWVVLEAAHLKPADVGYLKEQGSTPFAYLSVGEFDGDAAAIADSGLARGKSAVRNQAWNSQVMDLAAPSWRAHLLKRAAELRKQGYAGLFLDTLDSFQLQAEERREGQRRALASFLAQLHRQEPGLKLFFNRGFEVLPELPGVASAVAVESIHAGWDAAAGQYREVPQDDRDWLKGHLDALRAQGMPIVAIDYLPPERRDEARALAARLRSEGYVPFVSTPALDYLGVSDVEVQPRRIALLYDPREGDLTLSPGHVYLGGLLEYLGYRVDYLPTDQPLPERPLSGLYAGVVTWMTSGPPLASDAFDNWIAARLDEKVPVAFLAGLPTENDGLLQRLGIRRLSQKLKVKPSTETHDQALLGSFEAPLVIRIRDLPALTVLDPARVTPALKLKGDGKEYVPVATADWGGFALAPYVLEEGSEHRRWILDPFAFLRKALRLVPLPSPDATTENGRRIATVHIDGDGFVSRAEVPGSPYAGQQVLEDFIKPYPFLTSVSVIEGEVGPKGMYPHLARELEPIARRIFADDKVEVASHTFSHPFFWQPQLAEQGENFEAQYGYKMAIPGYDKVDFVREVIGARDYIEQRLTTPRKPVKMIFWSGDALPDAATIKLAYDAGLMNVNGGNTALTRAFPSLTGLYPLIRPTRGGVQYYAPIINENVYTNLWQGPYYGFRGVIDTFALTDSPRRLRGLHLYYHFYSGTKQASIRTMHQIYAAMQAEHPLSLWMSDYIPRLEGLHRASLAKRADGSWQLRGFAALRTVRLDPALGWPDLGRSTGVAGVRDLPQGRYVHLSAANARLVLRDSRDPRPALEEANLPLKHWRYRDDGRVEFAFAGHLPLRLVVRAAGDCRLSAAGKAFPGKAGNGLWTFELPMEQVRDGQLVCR

Molecule `CSC(=S)N/N=C/c1ccccn1` [SK-017154-O, methyl 2-(2-pyridinylmethylene) hydrazinecarbodithioate] gave a Ki of 1130 ± 30 nM.
